The values below come from patent US11884675B2, “Heterocyclic compounds as triggering receptor expressed on myeloid cells 2 agonists and methods of use” (AMGEN INC., priority 2020, dated 2024).

Broadly, the EC50 is the concentration needed to bring the measured effect to its halfway point. Higher therefore signals lower potency in that assay.

For the experiment, the target named is hTREM2 (Homo sapiens, UniProt Q9NZC2). In words: TREM2 agonist potency by Syk phosphorylation (AlphaLisa) in HEK293T-hTREM2 cells, used for Examples 306-429. The class given is cell-based. The arrangement: expressed in transfected cells; host or cells: HEK293T (HEK293T-hTREM2 cells). The settings on record: HEK293 Cells. On the procedure: In vitro Measurement of Triggering Receptor Expressed on Myeloid Cells 2 activity using cellular phosphorylation of Spleen Tyrosine Kinase (“Syk”) Assays used for Examples 306-429
Chain of hTREM2 (Q9NZC2 19-230): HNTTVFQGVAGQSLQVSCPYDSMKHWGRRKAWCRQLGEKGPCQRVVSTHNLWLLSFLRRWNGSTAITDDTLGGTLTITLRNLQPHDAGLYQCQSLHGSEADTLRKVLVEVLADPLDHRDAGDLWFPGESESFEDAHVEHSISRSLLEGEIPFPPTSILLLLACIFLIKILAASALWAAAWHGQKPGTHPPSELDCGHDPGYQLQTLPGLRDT
Chain of hTREM2 (O43914 22-113 partner): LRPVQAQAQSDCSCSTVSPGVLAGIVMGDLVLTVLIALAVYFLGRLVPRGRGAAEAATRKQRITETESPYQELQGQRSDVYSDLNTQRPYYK
Measurement of TREM2 agonist potency was done using a HEK cell line expressing human TREM2 and DAP12 (HEK293T-hTREM2 cells). Binding of small molecules to, and activation of, TREM2 increases the phosphorylation of Syk. The resultant levels of Syk phosphorylation were measured using a commercial AlphaLisa reagent kit. To perform the assay, HEK-hTREM2 cells were plated at 14,000 cells per well in a 384 well plate, in 25 μL, of complete growth media and incubated at 37° C., 5% CO2 for 20-24 hours. Prior to the assay, test compounds were diluted in the 384 well plates in assay buffer and allowed to equilibrate for 30 minutes. Growth media was removed from cell plates by inversion on blotting paper, and 25 μL of test compounds in assay buffer was added to cells. Cells were incubated for 45 minutes at room temperature. After 45 minutes, assay buffer was removed and 10 μL of lysis buffer was added. Plates were shaken for 20 minutes at 350 RPM at room temperature. After complete lysis, AlphaLisa reagents were added to the lysate, and fluourescence intensity was measured using a Perkin Elmer Envision plate reader. Intensities were used to generate a standard curve, and % activation was calculated. Curve fitting was performed using Prism v9 software, log(agonist) vs response-variable slope (four parameters), and EC50s were calculated from the curve fit.
The results presented in Table 20 have been generated with the in vitro assay described above for Examples 306-429. This assay may be used to test any of the compounds described herein to assess and characterize a compound's ability to act as an agonist of TREM2.
(Alpha assays give light when donor and acceptor beads are brought close together.)
Consider `Cc1cnc2c(-c3ccc(F)cc3F)nc([C@H]3CCO[C@@H](c4cnn(C5CC5)c4)C3)cc2n1` (racemic) [Example 388, 5-(2,4-difluorophenyl)-2-methyl-7-[2-(1-cyclopropylpyrazol-4-yl)tetrahydropyran-4-yl]pyrido[3,4-b]pyrazine], for which the EC50 lay in the range of 50 to 500 nM.
`Cc1cc([C@@H]2C[C@H](c3nc(-c4cc(F)c(Cl)c(F)c4)c4nc(C)c(C)nc4n3)CCO2)ccn1` (racemic) [Example 389, 4-(4-chloro-3,5-difluoro-phenyl)-6,7-dimethyl-2-[2-(2-methyl-4-pyridyl)tetrahydropyran-4-yl]pteridine] showed an EC50 of no more than 50 nM.
The value for `Cc1nc2cc([C@H]3CCO[C@@H](c4cnn(C5CC5)c4)C3)nc(-c3ccc(F)cc3F)c2nc1C` (racemic) [Example 393, 7-[2-(1-cyclopropylpyrazol-4-yl)tetrahydropyran-4-yl]-5-(2,4-difluorophenyl)-2,3-dimethyl-pyrido[3,4-b]pyrazine] was 50 to 500 nM; that for `[2H]C([2H])([2H])c1nc2nc([C@H]3CCO[C@@H](c4ccnc(C)c4)C3)nc(-c3ccc(Cl)c(F)c3F)c2nc1C([2H])([2H])[2H]` (racemic) [Example 395, 4-(4-chloro-2,3-difluoro-phenyl)-2-[2-(2-methyl-4-pyridyl)tetrahydropyran-4-yl]-6,7-bis(trideuteriomethyl)pteridine] was no more than 50 nM; that for `Cc1cc([C@H]2C[C@@H](c3cc4nc(C)c(C)cc4c(-c4ccc(F)cc4F)n3)CCO2)ccn1` (racemic) [Example 399, 5-(2,4-difluorophenyl)-2,3-dimethyl-7-[2-(2-methyl-4-pyridyl)tetrahydropyran-4-yl]-1,6-naphthyridine] was no more than 50 nM.
The value for `Cc1cc([C@H]2C[C@H](c3cc4nc(C)c(C)cc4c(-c4ccc(F)cc4F)n3)CCO2)ccn1` (racemic) [Example 400, 5-(2,4-difluorophenyl)-2,3-dimethyl-7-[2-(2-methyl-4-pyridyl)tetrahydropyran-4-yl]-1,6-naphthyridine] was no more than 50 nM.
Consider `Cc1cc([C@H]2C[C@@H](c3cc4nc(C)c(C)cc4c(-c4ccc(Cl)cc4F)n3)CCO2)ccn1` (racemic) [Example 401, 5-(4-chloro-2-fluoro-phenyl)-2,3-dimethyl-7-[2-(2-methyl-4-pyridyl)tetrahydropyran-4-yl]-1,6-naphthyridine], for which the EC50 was no more than 50 nM.
To `Cc1nc2nc([C@@H]3CCO[C@@H](c4cnn(C5CC5)c4)C3)nc(C34CC(C(F)(F)F)(C3)C4)c2nc1C` (stereo in doubt) [Example 365, 2-(2-(1-cyclopropyl-1H-pyrazol-4-yl)tetrahydro-2H-pyran-4-yl)-6,7-dimethyl-4-(3-(trifluoromethyl)bicyclo[1.1.1]pentan-1-yl)pteridine] belongs 50 to 500 nM.
The value for `Cc1nc2nc([C@H]3CCO[C@@H](c4cnn(C5CC5)c4)C3)nc(C34CC(C(F)(F)F)(C3)C4)c2nc1C` (stereo in doubt) [Example 366, 2-(2-(1-cyclopropyl-1H-pyrazol-4-yl)tetrahydro-2H-pyran-4-yl)-6,7-dimethyl-4-(3-(trifluoromethyl)bicyclo[1.1.1]pentan-1-yl)pteridine] was no more than 50 nM.
The value for `Cc1cc(C2CN(c3cc4nc(C)cnc4c(-c4ccc(C(F)(F)F)nc4)n3)CCO2)ccn1` (stereo not drawn) [Example 311, 4-(2-methyl-5-(6-(trifluoromethyl)pyridin-3-yl)pyrido[3,4-b]pyrazin-7-yl)-2-(2-methylpyridin-4-yl)morpholine] was 50 to 500 nM; that for `Cc1cc(C2CN(c3cc4nc(C)c(C)nc4c(-c4ccc(C(F)(F)F)nc4)n3)CCO2)ccn1` (stereo not drawn) [Example 312, 4-(2,3-dimethyl-5-(6-(trifluoromethyl)pyridin-3-yl)pyrido[3,4-b]pyrazin-7-yl)-2-(2-methylpyridin-4-yl)morpholine] was no more than 50 nM; that for `Cc1cc(C2CN(c3cc4nc(C)cnc4c(-c4ccc(F)cc4F)n3)CCO2)ccn1` (stereo not drawn) [Example 313, 4-(5-(2,4-difluorophenyl)-2-methylpyrido[3,4-b]pyrazin-7-yl)-2-(2-methylpyridin-4-yl)morpholine] was no more than 50 nM.
On to `COc1cc(C2CN(c3nc(-c4ccc(Cl)cc4F)c4nc(C)c(C)nc4n3)CCO2)ccn1` (stereo not drawn) [Example 314, 4-(4-(4-chloro-2-fluorophenyl)-6,7-dimethylpteridin-2-yl)-2-(2-methoxypyridin-4-yl)morpholine], for which the EC50 was no more than 50 nM.
Molecule `Cc1cc(C2CN(c3cc4nc(C)c(C)nc4c(-c4ccc(F)cc4F)n3)CCO2)ccn1` (stereo not drawn) [Example 315, 4-(5-(2,4-difluorophenyl)-2,3-dimethylpyrido[3,4-b]pyrazin-7-yl)-2-(2-methylpyridin-4-yl)morpholine] had an EC50 of no more than 50 nM.
To `Cc1cc([C@@H]2C[C@H](c3cc4nc(C)c(C)nc4c(-c4ccc(F)cc4F)n3)CCO2)ccn1` [Example 316, 5-(2,4-difluorophenyl)-2,3-dimethyl-7-[(2S,4R)-2-(2-methyl-4-pyridyl)tetrahydropyran-4-yl]pyrido[3,4-b]pyrazine] belongs 50 to 500 nM; to `Cc1cc([C@H]2C[C@@H](c3cc4nc(C)c(C)nc4c(-c4ccc(F)cc4F)n3)CCO2)ccn1` [Example 317, 5-(2,4-difluorophenyl)-2,3-dimethyl-7-[(2R,4S)-2-(2-methyl-4-pyridyl)tetrahydropyran-4-yl]pyrido[3,4-b]pyrazine], no more than 50 nM; to `Cc1nc2nc([C@@H]3CCO[C@@H](c4cnn(C5CC5)c4)C3)nc(-c3ccc(F)cc3Cl)c2nc1C` [Example 321, 4-(2-chloro-4-fluorophenyl)-2-((2R,4R)-2-(1-cyclopropyl-1H-pyrazol-4-yl)tetrahydro-2H-pyran-4-yl)-6,7-dimethylpteridine], 50 to 500 nM.
As for `COc1cc(C2CN(c3nc(-c4ccc(C(F)(F)F)nc4)c4nc(C)c(C)nc4n3)CCO2)ccn1` (stereo not drawn) [Example 322, 4-(6,7-dimethyl-4-(6-(trifluoromethyl)pyridin-3-yl)pteridin-2-yl)-2-(2-methoxypyridin-4-yl)morpholine], the EC50 is no more than 50 nM.
The value for `Cc1cc(C2CC(c3nc(-c4ccc(C(F)(F)F)nc4)c4ccc(C)nc4n3)CCO2)ccn1` (stereo not drawn) [Example 324, 7-methyl-2-(2-(2-methylpyridin-4-yl)tetrahydro-2H-pyran-4-yl)-4-(6-(trifluoromethyl)pyridin-3-yl)pyrido[2,3-d]pyrimidine] was 50 to 500 nM; that for `Cc1cc(C2CC(c3cc4nc(C)ccc4c(-c4ccc(F)cc4F)n3)CCO2)ccn1` (stereo not drawn) [Example 326, 5-(2,4-difluorophenyl)-2-methyl-7-(2-(2-methylpyridin-4-yl)tetrahydro-2H-pyran-4-yl)-1,6-naphthyridine] was no more than 50 nM.
For the molecule `Cc1cc(C2CC(c3cc4nc(C)c(C)cc4c(-c4ccc(Cl)cc4F)n3)CCO2)ccn1` (stereo not drawn) [Example 327, 5-(4-chloro-2-fluorophenyl)-2,3-dimethyl-7-(2-(2-methylpyridin-4-yl)tetrahydro-2H-pyran-4-yl)-1,6-naphthyridine], the EC50 is no more than 50 nM.
Consider `Cc1cc(C2CC(c3cc4nc(C)c(C)cc4c(-c4ccc(F)cc4F)n3)CCO2)ccn1` (stereo not drawn) [Example 328, 5-(2,4-difluorophenyl)-2,3-dimethyl-7-(2-(2-methylpyridin-4-yl)tetrahydro-2H-pyran-4-yl)-1,6-naphthyridine], for which the EC50 was no more than 50 nM.
To `Cc1cnc2c(-c3ccc(F)cc3F)nc([C@H]3CCO[C@@H](c4cnn(C5CC5)c4)C3)nc2n1` [Example 330, 2-[(2R,4S)-2-(1-cyclopropylpyrazol-4-yl)tetrahydropyran-4-yl]-4-(2,4-difluorophenyl)-7-methyl-pteridine] belongs no more than 50 nM; to `Cc1cc([C@H]2C[C@H](c3cc4nc(C)c(C)nc4c(-c4ccc(F)cc4F)n3)CCO2)ccn1` [Example 331, 5-(2,4-difluorophenyl)-2,3-dimethyl-7-((2R,4R)-2-(2-methylpyridin-4-yl)tetrahydro-2H-pyran-4-yl)pyrido[3,4-b]pyrazine], 500 to 3000 nM; to `Cc1cc([C@@H]2CN(c3cc4nc(C)cnc4c(-c4ccc(F)cc4F)n3)CCO2)ccn1` [Example 333, (R)-4-(5-(2,4-difluorophenyl)-2-methylpyrido[3,4-b]pyrazin-7-yl)-2-(2-methylpyridin-4-yl)morpholine], 500 to 3000 nM.
To `Cc1cc([C@H]2CN(c3cc4nc(C)cnc4c(-c4ccc(F)cc4F)n3)CCO2)ccn1` [Example 334, (S)-4-(5-(2,4-difluorophenyl)-2-methylpyrido[3,4-b]pyrazin-7-yl)-2-(2-methylpyridin-4-yl)morpholine] belongs no more than 50 nM; to `COc1cc([C@H]2CN(c3nc(-c4ccc(Cl)cc4F)c4nc(C)c(C)nc4n3)CCO2)ccn1` [Example 335, (S)-4-(4-(4-chloro-2-fluorophenyl)-6,7-dimethylpteridin-2-yl)-2-(2-methoxypyridin-4-yl)morpholine], no more than 50 nM.
